The values below come from US20240009269A1 (priority 2020, published 2024).

Read-outs that look alike come from different tables or passages of the source. Some results are limits rather than exact numbers.

Series [1] in a line: Estimated systemic exposure after intra-arterial injection. The class given is in vivo, mouse.
Series [2] concerns mouse brain (blood-brain barrier). An excerpt:
Briefly, male C57BL/6J mice (n=43, 6-8 weeks old, 20-25 g, Jackson Laboratory) were anesthetized with 2% isoflurane. The common carotid artery (CCA) bifurcation was exposed and the occipital artery branching off from the external carotid artery (ECA) was coagulated. The ECA and the pterygopalatine artery (PPA) were temporarily ligated with 4-0 silk sutures. A temporary ligature using a 4-0 suture was placed on the carotid bifurcation and the proximal CCA was permanently ligated. A microcatheter (PE-8-100, SAI Infusion Technologies) was flushed with 2% heparin (1,000 U mL^−1, heparin sodium, Upjohn), inserted into the CCA via a small arteriotomy, and advanced into the internal carotid artery (ICA).
For each animal, 150 μL of solution was infused at a rate of 150 μL minute^−1. […] The brains were harvested immediately after Evans Blue injection, sectioned in brain slicer matrix (Zivic Instruments) to produce 1 mm slabs.
Animal anesthesia was maintained at 1.5-2% during the MRI scan. Mice were placed on a water-heated animal bed equipped with temperature and respiratory control. Respiration was monitored and maintained at 30-60 minutes^−1. All MRI experiments were performed on a Bruker 11.7T MRI scanner. Baseline T2 (TR/TE=2,500/30 ms), susceptibility-weighted imaging (SWI) (TR/TE=378/8 ms), T1 (TR/TE 350/6.7 ms)-weighted, dynamic gradient echo echo-planar imaging (GE-EPI, TR/TE 1250/9.7 ms, field of view (FOV)=14×14 mm, matrix=128×128, acquisition time=60 s and 24 repetitions) and dynamic T1 imaging (TR/TE 2000/3. 5ms, field of view=14×14 mm, acquisition time=8 seconds and 20 repetitions) images of the brain were acquired. The microcatheter was connected to a syringe mounted on an MRI compatible programmable syringe pump (PHD 2000, Harvard Apparatus Inc.). Gadolinium (Gd; Prohance) dissolved in saline at 1:50 was infused intra-arterially at the rate of 150 μL minute^−1 under dynamic GE-EPI MRI for visualization of perfusion territory. […] To quantify BBB status, T1 intensities in cortex, hippocampus and thalamus/hypothalamus were compared between ipsilateral and contralateral hemispheres. T1 hyperintensity was corrected for possible asymmetry using pre-contrast T1 images and normalized as the ratio of ipsilateral to contralateral intensity. Additionally, the area of BBBO (mm^2) was calculated by conversion of T1 images to binary using the Auto Threshold function (plugin v1.17; Maximum Entropy method) [Kapur, J. N., P. K. Sahoo, and A. K. C. Wong, Computer Vision, Graphics, and Image Processing, 1985, 29(3): p. 273-285] in ImageJ. T2-weighted and SWI images were acquired at the same timepoints for detection of brain damage and microhemorrhage. Subsequently, animals were sacrificed for further histological assessment.
To determine the area and region of perfusion territory, we first calculated the contrast enhancement maps at the time where contrast enhancement was at its maximum. As Gd causes negative contrast under T2 imaging, we calculated the contrast enhancement as (SIpre-SIpost)/SIpre, where SI is the signal intensity of an MR image. Histogram was plotted for all pixels in the brain region in a contrast enhancement map and further fitted into two Gaussian distributions, assuming there were two dominant populations for non-contrast enhanced and contrast-enhanced pixels, respectively. The cutoff value to separate the two populations was then determined. The fraction of contrast enhanced areas was calculated by the ratio of the number of pixels, whose values are larger than the cutoff value, to the total number of pixels in the brain. A similar method was used to determine the BBBO territory.

In the next series the test system is dhBMECs. Briefly: Cytotoxicity assay (EthD1/Hoechst live-cell imaging), dhBMECs. Format: cell-based, human. Conditions: for exposure time maintaining high cell viability: phase diagrams of dhBMECs and HCNs, 98% viability. Here is the method:
DhBMECs were seeded on polystyrene 96-well plate, coated with 25 μg mL^−1 fibronectin and 50 μg mL^−1 collagen IV, at 2×10^5 cells cm^−2 in BBB induction medium. On day 1, the cells were washed twice with BBB maintenance medium with gentle pipetting up-and-down to remove non-adherent cells and incubated in the medium overnight. HCN2 cells were seeded in the tissue culture-treated 96-well plate at 3×10^3 cell cm^−2 in HCN2 cell culture medium and cultured for two days at 37° C., 5% CO2, with the medium change on day 1 after the seeding. The cytotoxicity assay was performed on day 2 after seeding. Briefly, in the cytotoxicity assay, the cells were incubated with two dyes: a membrane-impermeable Ethidium homodimer-1 (EthD1, L3224, Thermo Fisher Scientific) to assess cell viability, and Hoechst 33342 nuclear stain (Cat. No. 62249, Thermo Fisher Scientific) and imaged on an epifluorescence microscope. In more detail, the cells were washed with BBB maintenance medium followed by incubation with 200 μL of 2 μg mL^−1 Hoechst 33342 and 10 μM EthD1 solution for 15-30 minutes at 37° C., 5% CO2. After the incubation, 100 μL of the solutions were replaced with Hoechst 33342 and EthD1 solutions containing melittin using a multichannel pipettor, resulting in final 0.75 μM, 5 μM, and 10 μM melittin concentrations. After the addition of treatment solutions, large 6×6 epifluorescence images were collected every ˜3.5 minutes per condition using a 20×objective and a Nikon Eclipse TiE microscope, equipped with 37° C. chamber, for 60-90 minutes. Out-of-focus portions of images were manually blacked out using ImageJ. Afterwards, the images were analyzed using a custom pipeline in image analysis software CellProfiler 3.1.8 to count Hoechst-positive objects (all cells) and EhtD1-positive objects (dead cells). The fraction of viable cells (F) was calculated using equation 2 below:
where N(EthD1)i is the number of EthD1-positive objects at time i, N(EthD1)o is the number of EthD1-positive objects at time t=2 minutes (initial time of imaging), N(Hoechst)max is the maximum number of Hoechst-positive objects counted in an image over the imaging time-course. For dhBMECs, the experiments were repeated a total of five times with two independent iPSC differentiations. In the experiment, all media removal was done by gentle pipetting and not aspiration by vacuum. For HCN2 cells, the experiments were performed a total of three times on day 2 and day 3 after seeding.

On to `CC[C@H](C)[C@H](NC(=O)CN)C(=O)NCC(=O)N[C@@H](C)C(=O)N[C@H](C(=O)N[C@@H](CC(C)C)C(=O)N[C@@H](CCCCN)C(=O)N[C@H](C(=O)N[C@@H](CC(C)C)C(=O)N[C@H](C(=O)N[C@H](C(=O)NCC(=O)N[C@@H](CC(C)C)C(=O)N1CCC[C@H]1C(=O)N[C@@H](C)C(=O)N[C@@H](CC(C)C)C(=O)N[C@H](C(=O)N[C@@H](CO)C(=O)N[C@@H](Cc1c[nH]c2ccccc12)C(=O)N[C@H](C(=O)N[C@@H](CCCCN)C(=O)N[C@@H](CCCNC(=N)N)C(=O)N[C@@H](CCCCN)C(=O)N[C@@H](CCCNC(=N)N)C(=O)N[C@@H](CCC(N)=O)C(=O)N[C@@H](CCC(N)=O)C(N)=O)[C@@H](C)CC)[C@@H](C)CC)[C@@H](C)O)[C@@H](C)O)C(C)C)C(C)C` [melittin], for which the “systemic dose, fold lower than the LD50” value in series [1] (3 μM·min melittin, mouse weight of 20 g assumed) is on record as ~50 fold. In series [1] (3 μM·min, 150 μL injection diluted into 1.2 mL of whole blood (assumed)), the “melittin concentration after dilution in the bloodstream” value is 0.33 µM. In addition, the “reduction of melittin concentration upon exiting the brain” value in series [1] (dilution in the bloodstream assumed) was ~10 fold. The “Evans Blue leakage” value in series [2] (1 μM·minute) was “No leakage of Evans Blue”; in series [2] (3 μM·minute, ipsilateral hemisphere), “reproducible leakage of Evans Blue”; in series [2] (5 μM·minute) it was “Widespread leakage of Evans Blue”. The “dose relative to solubility limit (fold below)” value in series [2] (3 μM·min melittin) is listed as ~120 fold. Besides, the “Evans Blue extravasation” value in series [2] (3 μM·minute, 24 hours) was “no Evans Blue extravasation”. For the same molecule, in series [2] (3 μM·minute, 24 hours), the “leakage of Gd (T1 MRI)” value is listed as “marginal leakage”. For the same molecule, the T1 hyperintensity result in series [2] (3 μM·minute, cortex) is on record as “much lower”. The “BBB status (Gd-enhanced MRI and Evans Blue)” value in series [2] (3 μM·minute, day 7) is listed as “full recovery of the BBB”. Further, the “T1 intensity, ipsilateral vs contralateral” value in series [2] (3 μM·minute, hippocampus and thalamus/hypothalamus, following dosing) is on record as “significant increase”. Also, in series [2] (3 μM·minute, within the hippocampus, immediately after dosing), the “brain territory opened (area of BBBO, T1 thresholding)” value was determined as 5.70±1.73 mm^2. Further, in series [2] (at 24 hours and 7 days), the “reduction of BBBO area” value is ~20 fold. For the same molecule, in series [2] (intra-arterial (internal carotid artery), 1 minute), the “minimum effective dose for BBBO” value is 3 µM·min. Also, in series [2] (mouse, in vivo), the “difference in dose required for BBBO, human microvessels (20 μM·minute) vs mouse brain (3 μM·minute)” value is listed as “approximately 7 fold”. Besides, the “exposure time maintaining high cell viability” value in the series with dhBMECs (0.75 μM melittin) was ≥ 20 min; in the series on dhBMECs (10 μM melittin), ≤ 10 min. Besides, in the series with dhBMECs (5 μM melittin), the “time for which viability is largely unaffected” value is “about 20 minutes”. Moreover, the “time at which the viability reached 50% (τ1/2)” value with dhBMECs (5 μM melittin, continuous exposure) was ~40 min. The decrease of viability with dhBMECs (dose of 100 μM·minute) is listed as < 2%.
